We go through 16 compounds from PubChem BioAssay (NCI).

Common to all, as to experiment: inhibition of tumour cell growth, NCI panel, 48 h
The subject of test [1] is MALME-3M melanoma.
The test system of test [2] is SF-539 CNS.
Test [3] relates to RXF 393 renal.
Test [4] deals with RPMI-8226 leukemia.
Test [5] has as its system HL-60(TB) leukemia.
Test [6] deals with MDA-MB-435.
The test system of test [7] is SK-OV-3 ovarian.
The test system of test [8] is SN12C renal.
The test system of test [9] is OVCAR-8 ovarian.
Test [10] relates to 786-0 renal.
Test [11] relates to MCF7 breast.
Test [12] deals with SK-MEL-2 melanoma.
Test [13] deals with CCRF-CEM leukemia.
Test [14] concerns NCI-H226 lung.

The structures appear in SMILES notation.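 Growth conditions: 96-well plates. Treatment: test compound, 48 hours, 5 concentrations. Analysis: linear interpolation between bracketing concentrations; unreached endpoints set to highest concentration. TGI denotes the concentration required for complete inhibition of growth.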

Take `CC[C@H](C)C1=C(OC(C)=O)[N@+]2([O-])Oc3ccc(-c4c(O)c(O)c(-c5ccc(OC(C)=O)cc5)c(OC(C)=O)c4OC(C)=O)cc3O[C@]2([C@@H](C)CC)C(=O)N1O`: the TGI in test [1] is 46.6 µM; in test [2], more than 50 µM; in test [3] it was more than 50 µM; in test [4], 25.5 µM; in [5], more than 50 µM; in test [6] it was more than 50 µM. The TGI in test [7] was more than 50 µM; in test [8], more than 50 µM; in test [9], more than 50 µM; in test [10], 43.2 µM; in test [11] it was more than 50 µM; in test [12], more than 50 µM.
As for `COCCOC(=O)NCn1cc(-c2ccccc2)nn1`, the TGI in [1], in test [2], in test [13], in [4], in test [5] and in test [6] was more than 100 µM throughout. The TGI in test [8], in test [9], in test [10], in [14], in [11] and in test [12] was more than 100 µM throughout.
Take `C=C1[C@H]2O[C@H]2[C@@H](OC(C)=O)[C@@]2(C)[C@@H](OC(C)=O)C[C@@H](OC(=O)CCC)[C@@](C)(O)[C@@H]2[C@@H](OC(C)=O)[C@]2(O)[C@@H](C)C(=O)O[C@H]2[C@H]1Cl`: the TGI in [1], in [2], in test [3], in [4], in [5] and in [6] was more than 100 µM in each case. In addition, the TGI in test [8] was more than 100 µM; in test [9], more than 100 µM; in test [10] it was more than 100 µM; in test [14] it was 0.818 µM; in [11] it was more than 100 µM; in test [12], more than 100 µM.
For the compound `Cc1ccc(S(=O)(=O)NC(=O)Nc2cccc(S(N)(=O)=O)c2)cc1`, the TGI in test [1], in test [2], in [3], in test [4], in [5] and in [6] was more than 100 µM in each case. The TGI in test [7], in test [10], in test [14], in test [11] and in test [12] was more than 100 µM each time.
Turning to `N#Cc1cc2c(cc1C#N)/C(=N\c1cccc(N)n1)N=C2Nc1cccc(N)n1`, the TGI in [1] was 84.1 µM; in test [2], 43.2 µM; in test [13], more than 100 µM; in [4] it was more than 100 µM; in [5], more than 100 µM; in test [6], 59.7 µM. The TGI is 42.4 µM in test [7]; more than 100 µM in [8]; more than 100 µM in test [9]; 30.6 µM in test [10]; more than 100 µM in [14]; more than 100 µM in [11]. This compound also showed a TGI in test [12] of more than 100 µM.
`CCOC(=O)Nc1sc2c(c1C#N)CC(C)CC2` (centres undefined): the TGI is 76.9 µM in [1]; 70.2 µM in test [3]; 34.8 µM in test [4]; 13.1 µM in test [5]; more than 100 µM in test [6]; more than 100 µM in test [7]. Moreover, the TGI was 99 µM in [8]; more than 100 µM in test [9]; 40.6 µM in [10]; 35.3 µM in test [14]; 24.5 µM in [11]; 7.87 µM in test [12].
In the case of `CC(=O)N1c2ccccc2C2=NN(C)C(=N)SC21` (centres undefined), the TGI in test [1], in test [2], in test [13], in test [4], in test [5] and in test [6] was more than 100 µM throughout. The TGI in test [8], in [9], in [10], in [14], in [11] and in test [12] was more than 100 µM throughout.
Take `O=C(O)CCO/N=C1/C(c2c(O)[nH]c3ccccc23)=Nc2ccccc21`: the TGI is more than 100 µM in test [1]; more than 100 µM in test [2]; 40.3 µM in test [13]; 17.5 µM in [3]; more than 100 µM in [4]; 62.4 µM in test [5]. Moreover, the TGI in [6] was more than 100 µM; in test [7], 21.1 µM; in test [8], more than 100 µM; in [9], more than 100 µM; in [10] it was 94.8 µM; in [11] it was more than 100 µM. In test [12], this compound showed a TGI of 37.7 µM.
In the case of `O=C1CNC(=O)/C(=C/c2c[nH]c3ccccc23)N1`, the TGI in test [1], in test [3], in [4], in [5], in test [6] and in [7] was more than 100 µM in each case. For the same compound, the TGI in test [8], in test [9], in test [10], in test [14], in test [11] and in test [12] was more than 100 µM each time.
Consider `Cc1ccc(/C=C/C(=N/NC(=O)N/N=C(/C=C/c2ccc(C)cc2)C(C)C)C(C)C)cc1`, for which the TGI in [1], in test [13], in [3], in test [4], in test [5] and in [6] was more than 10 µM in each case. Also, the TGI in test [8], in test [9], in test [10], in test [14], in test [11] and in test [12] was more than 10 µM each time.
Turning to `NC(=O)CN1CC(C2=C(O)CN(CC(N)=O)C2=O)=CC1=O`, the TGI in [1], in [2], in test [13], in test [4], in test [5] and in [6] was more than 100 µM in each case. Also, the TGI in [7], in test [8], in test [9], in test [10], in [14] and in test [11] was more than 100 µM throughout. In test [12], this compound yielded a TGI of more than 100 µM.
Regarding `CC(=O)Nc1ccc2c3c(cc(O)c2c1)N(C(=O)CCCCC(=O)N1CC(CCl)c2c1cc(O)c1cc(NC(C)=O)ccc21)CC3CCl` (centres undefined), the TGI in test [1] stood at 0.575 µM; in test [2], 1.34 µM; in [3] it was 0.41 µM; in test [4], 0.635 µM; in [5], 4.39 µM; in [6], 0.71 µM. For the same compound, the TGI in [7] is more than 64.5 µM; in test [8] it was 6.4 µM; in test [9], more than 32.4 µM; in [10] it was 0.992 µM; in test [14], 0.763 µM; in [11], 0.264 µM. The TGI in test [12] came out at 0.316 µM.
In the case of `c1ccc2c(c1)nn1c3ccc4nonc4c3[n-][n+]21`, the TGI in test [1], in test [2], in [13], in test [3], in [4] and in test [5] was more than 100 µM in each case. The TGI in [6], in test [8], in test [9], in test [10], in [14] and in [11] was more than 100 µM throughout. In test [12], the TGI was more than 100 µM.
`COC(=O)C1CCC(=O)N1CN(C(C)=O)c1cc(OC)ccc1OC` (centres undefined): the TGI in test [1], in test [2], in test [3], in test [4], in test [5] and in test [6] was more than 100 µM throughout. Also, the TGI in [7], in [8], in test [9], in test [10], in test [14] and in [11] was more than 100 µM throughout. The same compound returned a TGI in [12] of more than 100 µM.
Take `CCCCN(CCCC)CCC(O)c1cc(-c2ccc(C(F)(F)F)cc2)nc(-c2ccc(C(F)(F)F)cc2)c1` (centres undefined): the TGI in [1], in test [2], in test [13], in test [4], in test [5] and in test [6] was more than 100 µM each time. For the same compound, the TGI in test [8], in test [9], in test [10], in test [11] and in [12] was more than 100 µM each time.
As to `O=C1c2c(O)cc(O)cc2C(C2OC(CO)C(O)C(O)C2O)c2cc(CO)cc(O)c21` (centres undefined), the TGI in [1], in test [4], in [5], in test [6], in [7] and in test [8] was more than 100 µM in each case. For the same compound, the TGI in test [9], in [10], in test [14] and in [11] was more than 100 µM throughout.
